Data reported in patent US20230312481A1, “SUBSTITUTED (PHTHALAZIN-1-YLMETHYL)UREAS, SUBSTITUTED N-(PHTHALAZIN-1-YLMETHYL)AMIDES, AND ANALOGUES THEREOF” (priority 2020, published 2023).

Tested on: HBV rcDNA in HepDE19 cells
Test: HepDE19 assay with bDNA quantitation of HBV rcDNA
Assay type: cell-based, hepatitis B virus
Conditions: HepDE19 cells, 7 day incubation, rcDNA measured by Quantigene 2.0 bDNA assay; top concentration 25 µM; read-out: DE-19bDNA EC50
Experimental: HepDE19 Assay With bDNA Quantitation of HBV rcDNA
HepDE19 (50,000 cells/well) were plated in 96-well collagen-coated tissue-culture treated microtiter plates in DMEM/F12 medium supplemented with 10% fetal bovine serum, 1% penicillin-streptomycin and 1 µg/mL tetracycline and incubated in a humidified incubator at 37° C. and 5% CO2 overnight. Next day, the cells were switched to fresh medium without tetracycline and incubated for 4 hours at 37° C. and 5% CO2. […] The final DMSO concentration in the assay was 0.5%. The plates were incubated for 7 days in a humidified incubator at 37° C. and 5% CO2. Following a 7 day-incubation, the level of rcDNA present in the inhibitor-treated wells was measured using a Quantigene 2.0 bDNA assay kit (Affymetrix, Santa Clara, CA) with HBV specific custom probe set and manufacturers instructions. Concurrently, the effect of compounds on cell viability was assessed using replicate plates, plated at a density of 5,000 cells/well and incubated for 4 days, to determine the ATP content as a measure of cell viability using the cell-titer glo reagent (CTG; Promega Corporation, Madison, WI) as per manufacturer’s instructions.
Representative compounds of the disclosure were tested for their abilities to inhibit formation of relaxed circular DNA (rcDNA) in a HepDE19 assay, as described elsewhere herein.

Row | Structure (SMILES) | EC50 [nM]
1 | CC(c1n[nH]c(=O)c2cc(F)c(F)cc12)N(C)C(=O)c1cc(F)c(C(F)F)c(F)c1 (single isomer, unassigned) [Compound 109, N-(1-(6,7-difluoro-4-oxo-3,4-dihydrophthalazin-1-yl)ethyl)-4-(difluoromethyl)-3,5-difluoro-N-methylbenzamide] | 110
2 | CC(c1n[nH]c(=O)c2cc(F)c(F)cc12)N(C)C(=O)c1cc2sccc2[nH]1 (single isomer, unassigned) [Compound 80, N-(1-(6,7-difluoro-4-oxo-3,4-dihydrophthalazin-1-yl)ethyl)-N-methyl-4H-thieno[3,2-b]pyrrole-5-carboxamide] | 14100
3 | CC(c1n[nH]c(=O)c2cc(F)c(F)cc12)N(C)C(=O)c1cc2sc(F)cc2[nH]1 (single isomer, unassigned) [Compound 103, N-(1-(6,7-difluoro-4-oxo-3,4-dihydrophthalazin-1-yl)ethyl)-2-fluoro-N-methyl-4H-thieno[3,2-b]pyrrole-5-carboxamide] | 60
4 | CC(c1n[nH]c(=O)c2cc(F)c(F)cc12)N(C)C(=O)c1ccc2ncoc2c1 (single isomer, unassigned) [Compound 91, N-(1-(6,7-difluoro-4-oxo-3,4-dihydrophthalazin-1-yl)ethyl)-N-methylbenzo[d]oxazole-6-carboxamide] | 3860
5 | CC(C)CN(C(=O)Nc1ccc(F)cc1)C(C)c1n[nH]c(=O)c2cc(F)ccc12 (single isomer, unassigned) [Compound 20, 1-(1-(6-fluoro-4-oxo-3,4-dihydrophthalazin-1-yl)ethyl)-3-(4-fluorophenyl)-1-isobutylurea] | 8
6 | CC(c1n[nH]c(=O)c2cc(F)c(F)cc12)N(C)C(=O)c1ccc2scnc2c1 (single isomer, unassigned) [Compound 84, N-(1-(6,7-difluoro-4-oxo-3,4-dihydrophthalazin-1-yl)ethyl)-N-methylbenzo[d]thiazole-5-carboxamide] | > 25000
7 | CC(c1n[nH]c(=O)c2cc(F)c(F)cc12)N(C)C(=O)c1ccc2c(c1)CCC2 (single isomer, unassigned) [Compound 82, N-(1-(6,7-difluoro-4-oxo-3,4-dihydrophthalazin-1-yl)ethyl)-N-methyl-2,3-dihydro-1H-indene-5-carboxamide] | 9010
8 | CC(c1n[nH]c(=O)c2cc(F)c(F)cc12)N(C)C(=O)c1cc2sc(F)cc2[nH]1 (single isomer, unassigned) [Compound 102, N-(1-(6,7-difluoro-4-oxo-3,4-dihydrophthalazin-1-yl)ethyl)-2-fluoro-N-methyl-4H-thieno[3,2-b]pyrrole-5-carboxamide] | 3770
9 | CC(c1n[nH]c(=O)c2cc(F)c(F)cc12)N(C)C(=O)c1ccc2ncoc2c1 (single isomer, unassigned) [Compound 90, N-(1-(6,7-difluoro-4-oxo-3,4-dihydrophthalazin-1-yl)ethyl)-N-methylbenzo[d]oxazole-6-carboxamide] | > 25000
10 | CC(C)CN(C(=O)Nc1ccc(F)cc1)C(C)c1n[nH]c(=O)c2cc(F)ccc12 (single isomer, unassigned) [Compound 21, 1-(1-(6-fluoro-4-oxo-3,4-dihydrophthalazin-1-yl)ethyl)-3-(4-fluorophenyl)-1-isobutylurea] | 2400

Same assay, conditions: Hepatitis B virus, HepDE19, 168 h, HepDE19 cells, 7 day incubation, rcDNA measured by Quantigene 2.0 bDNA assay; top concentration 25 µM; read-out: DE-19bDNA EC50

Row | Structure (SMILES) | EC50 [nM]
11 | CC(C)CN(C(=O)c1cc2ccccc2[nH]1)C(C)c1n[nH]c(=O)c2cc(F)c(F)cc12 (racemic) [Compound 56, N-(1-(6,7-difluoro-4-oxo-3,4-dihydrophthalazin-l-yl)ethyl)-N-isobutyl-1H-indole-2-carboxamide] | 390
12 | CC(c1n[nH]c(=O)c2cc(F)c(F)cc12)N(C)C(=O)c1ccc(Br)cc1 (racemic) [Compound 65, 4-bromo-N-(1-(6,7-difluoro-4-oxo-3,4-dihydrophthalazin-1-yl)ethyl)-N-methylbenzamide] | 60
13 | CC(C)CN(C(=O)Nc1ccc(F)c(Cl)c1)C(C)c1n[nH]c(=O)c2cc(Cl)ccc12 (racemic) [Compound 10, 3-(3-chloro-4-fluorophenyl)-1-(1-(6-chloro-4-oxo-3,4-dihydrophthalazin-1-yl)ethyl)-1-isobutylurea] | 20
14 | CC(c1n[nH]c(=O)c2cc(F)c(F)cc12)N(C)C(=O)c1cc2c(F)cc(F)cc2[nH]1 (racemic) [Compound 60, N-(1-(6,7-difluoro-4-oxo-3,4-dihydrophthalazin-1-yl)ethyl)-4,6-difluoro-N-methyl-1H-indole-2-carboxamide] | 50
15 | CC(c1n[nH]c(=O)c2cc(F)c(F)cc12)N(C)C(=O)c1cc(F)c(F)c(F)c1 (racemic) [Compound 67, N-(1-(6,7-difluoro-4-oxo-3,4-dihydrophthalazin-1-yl)ethyl)-3,4,5-trifluoro-N-methylbenzamide] | 740
16 | CCN(C(=O)c1cc2c(F)c(F)ccc2[nH]1)C(C)c1n[nH]c(=O)c2cc(F)c(F)cc12 (racemic) [Compound 49, N-(1-(6,7-difluoro-4-oxo-3,4-dihydrophthalazin-1-yl)ethyl)-N-ethyl-4,5-difluoro-1H-indole-2-carboxamide] | 25
17 | CC(c1n[nH]c(=O)c2c(F)cccc12)N(C)C(=O)Nc1ccc(F)c(F)c1 (centres unmarked) [Compound 45, 3-(3,4-difluorophenyl)-1-(1-(5-fluoro-4-oxo-3,4-dihydrophthalazin-1-yl)ethyl)-1-methylurea] | 790
18 | CC(C)CN(C(=O)Nc1ccc(F)c(Cl)c1)C(C)c1nn(C)c(=O)c2ccccc12 (racemic) [Compound 8, 3-(3-chloro-4-fluorophenyl)-1-isobutyl-1-(1-(3-methyl-4-oxo-3,4-dihydrophthalazin-1-yl)ethyl)urea] | 20
19 | CC(c1n[nH]c(=O)c2cc(F)c(F)cc12)N(C)C(=O)Nc1ccc(F)c(C(F)F)c1 (racemic) [Compound 73, 1-(1-(6,7-difluoro-4-oxo-3,4-dihydrophthalazin-1-yl)ethyl)-3-(3-(difluoromethyl)-4-fluorophenyl)-1-methylurea] | 20
20 | CCN(C(=O)c1cc2ccccc2[nH]1)C(C)c1n[nH]c(=O)c2cc(F)c(F)cc12 (racemic) [Compound 48, N-(1-(6,7-difluoro-4-oxo-3,4-dihydrophthalazin-1-yl)ethyl)-N-ethyl-1H-indole-2-carboxamide] | 60
21 | CC(c1nn(C)c(=O)c2cc(F)c(F)cc12)N(CCCO)C(=O)Nc1ccc(F)c(Cl)c1 (racemic) [Compound 25, 3-(3-chloro-4-fluorophenyl)-1-(1-(6,7-difluoro-3-methyl-4-oxo-3,4-dihydrophthalazin-1-yl)ethyl)-1-(3-hydroxypropyl)urea] | 10
22 | Cc1c(C(=O)N(C)C(C)c2n[nH]c(=O)c3cc(F)c(F)cc23)[nH]c2ccccc12 (racemic) [Compound 55, N-(1-(6,7-difluoro-4-oxo-3,4-dihydrophthalazin-1-yl)ethyl)-N,3-dimethyl-1H-indole-2-carboxamide] | 440
23 | CC(c1n[nH]c(=O)c2cc(F)c(F)cc12)N(C)C(=O)c1ccc(F)c(F)c1 (racemic) [Compound 70, N-(1-(6,7-difluoro-4-oxo-3,4-dihydrophthalazin-1-yl)ethyl)-3,4-difluoro-N-methylbenzamide] | 890

Same assay, conditions: Hepatitis B virus, HepDE19, 168 h, read-out: DE-19bDNA EC50

Row | Structure (SMILES) | EC50 [nM]
24 | CC(C)CN(C(=O)Nc1ccccc1)C(C)c1n[nH]c(=O)c2cc(F)c(F)cc12 (racemic) [Compound 28, 1-(1-(6,7-difluoro-4-oxo-3,4-dihydrophthalazin-1-yl)ethyl)-1-isobutyl-3-phenylurea] | 12
25 | CC(C)CN(C(=O)Nc1ccccc1)C(C)c1nn(C)c(=O)c2cc(F)c(F)cc12 (racemic) [Compound 34, 1-(1-(6,7-difluoro-3-methyl-4-oxo-3,4-dihydrophthalazin-1-yl)ethyl)-1-isobutyl-3-phenylurea] | 10
26 | CC(c1n[nH]c(=O)c2cc(F)c(F)cc12)N(C)C(=O)c1cc2ccccn2c1 (racemic) [Compound 59, N-(1-(6,7-difluoro-4-oxo-3,4-dihydrophthalazin-1-yl)ethyl)-N-methylindolizine-2-carboxamide] | 130
27 | C[C@H](c1n[nH]c(=O)c2cc(F)c(F)cc12)N(C)C(=O)c1cc2c(F)c(F)ccc2[nH]1 [Compound 57, (R)-N-(1-(6,7-difluoro-4-oxo-3,4-dihydrophthalazin-1-yl)ethyl)-4,5-difluoro-N-methyl-1H-indole-2-carboxamide] | 12
28 | CCN(C(=O)c1cc2cc(F)ccc2[nH]1)C(C)c1n[nH]c(=O)c2cc(F)c(F)cc12 (racemic) [Compound 47, N-(1-(6,7-difluoro-4-oxo-3,4-dihydrophthalazin-1-yl)ethyl)-N-ethyl-5-fluoro-1H-indole-2-carboxamide] | 41
29 | CC(C)CN(C(=O)Nc1ccccc1)C(C)c1n[nH]c(=O)c2cc(F)c(F)cc12 (single isomer, unassigned) [Compound 39, 1-(1-(6,7-difluoro-4-oxo-3,4-dihydrophthalazin-1-yl)ethyl)-1-isobutyl-3-phenylurea] | 3700
